Results from the supplement of paper PMC4862054.

Key:
Conditions in all cases: incubation time: 72 h
MDA-MB-468 = test: normalised response (% of control), CellTiter-Glo; higher = more viable cells (100 = DMSO, 0 = benzethonium chloride kill control)
Outline: (§1)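 A 20 µl suspension of breast cancer cells was seeded into each well of 384-well plates containing compound at 5 concentrations in 10-fold steps over a compound-specific 10,000-fold range. After 72 h incubation, CellTox Green fluorescence (485/520 nm) was read first, and CellTiter-Glo luminescence was read after 10 min at room temperature. Each plate was normalised against 0.1 % DMSO (100) and a positive kill control (0), and each value is the normalised signal at one concentration.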

CAL-85-1 = test: as above
Outline: as §1

CAL-120 = test: as above
Outline: as §1

MDA-MB-453 [1] = test: as above
Outline: as §1

BT-549 [2] = test: as above
Outline: as §1

MCF-10A [3] = test: as above
Outline: as §1

HCC1599 = test: as above
Outline: as §1

HCC1143 [4] = test: as above
Outline: as §1

HCC1937 = test: as above
Outline: as §1

MFM-223 [5] = test: as above
Outline: as §1

MDA-MB-436 = test: as above
Outline: as §1

CAL-148 = test: as above
Outline: as §1

SK-BR-3 = test: as above
Outline: as §1

HDQ-P1 = test: as above
Outline: as §1

MDA-MB-231 = test: as above
Outline: as §1

BT-474 = test: as above
Outline: as §1

CAL-51 [6] = test: as above
Outline: as §1

Hs578T [7] = test: as above
Outline: as §1

MDA-MB-453 [8] = test: normalised response (% of control), CellTox Green; higher = less cell death (100 = DMSO, 0 = benzethonium chloride kill control)
Outline: as §1

BT-549 [9] = test: as above
Outline: as §1

MCF-10A [10] = test: as above
Outline: as §1

MFM-223 [11] = test: as above
Outline: as §1

DU-4475 [12] = test: as above
Outline: as §1

Hs578T [13] = test: as above
Outline: as §1

HCC1143 [14] = test: drug sensitivity score (DSS), CellTiter-Blue viability (DSS (AUC-based score)); higher = stronger viability inhibition; extreme values may be limits of the assay
Outline: (§2)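 Into 384-well plates carrying compound in a 5- or 9-concentration series went 20 µl of breast cancer cell suspension, followed by 72 h of incubation. Adding 2.5 µl CellTiter-Blue per well and incubating 2 h at 37 °C preceded fluorescence measurement at 560/590 nm. After normalisation of each plate to 0.1 % DMSO and a positive kill control, dose-response curves were fitted and the area beneath them taken as the drug sensitivity score.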

DU-4475 [15] = test: as above
Outline: as §2

CAL-51 [16] = test: as above
Outline: as §2

Hs578T [17] = test: as above
Outline: as §2

Structure (SMILES)	normalised response (MDA-MB-468)	normalised response (CAL-85-1)	normalised response (CAL-120)	normalised response (MDA-MB-453 [1])	normalised response (BT-549 [2])	normalised response (MCF-10A [3])	normalised response (HCC1599)	normalised response (HCC1143 [4])	normalised response (HCC1937)	normalised response (MFM-223 [5])	normalised response (MDA-MB-436)	normalised response (CAL-148)	normalised response (SK-BR-3)	normalised response (HDQ-P1)	normalised response (MDA-MB-231)	normalised response (BT-474)	normalised response (CAL-51 [6])	normalised response (Hs578T [7])	normalised response (MDA-MB-453 [8])	normalised response (BT-549 [9])	normalised response (MCF-10A [10])	normalised response (MFM-223 [11])	normalised response (DU-4475 [12])	normalised response (Hs578T [13])	drug sensitivity score (HCC1143 [14])	drug sensitivity score (DU-4475 [15])	drug sensitivity score (CAL-51 [16])	drug sensitivity score (Hs578T [17])
CC/C(=C(\c1ccccc1)c1ccc(OCCN(C)C)cc1)c1ccccc1 [Tamoxifen] (1000 nM)	93.8%	99.8%	94.8%	93.1%	96.1%	104%	107%	104%	102%	97.9%	97.7%	103%	103%	106%	103%	95.9%	81.8%	106%	110%	94%	111%	74.9%	105%	89.4%				
COc1cc2c(N3CCN(C(=O)Nc4ccc(OC(C)C)cc4)CC3)ncnc2cc1OCCCN1CCCCC1 [Tandutinib]																									0	0	0	0
COc1cc2c(N3CCN(C(=O)Nc4ccc(OC(C)C)cc4)CC3)ncnc2cc1OCCCN1CCCCC1 [Tandutinib] (100 nM)	103%	109%	101%	97.4%	103%	96.6%	121%	103%	100%	101%	114%	101%	98.4%	102%	106%	105%	96.2%	96.3%	106%	129%	108%	100%	98%	91.6%				
Cn1nnc2c(C(N)=O)ncn2c1=O [Temozolomide] (1000 nM)	91.8%	99.4%	99.3%	100%	101%	104%	116%	98.1%	93.9%	94.8%	104%	97.6%	92%	98.8%	93.3%	95.4%	76.4%	91.7%	105%	108%	89.5%	52%	100%	94.3%				
CC[C@@H]1C(=O)N(C)c2cnc(Nc3ccc(C(=O)N[C@H]4CC[C@H](N5CCN(CC6CC6)CC5)CC4)cc3OC)nc2N1C(C)C [Volasertib] (100 nM)	36.5%	53%	64.4%	77.3%	25.9%	58.5%	45.6%	50.5%	81%	42%	50.1%	53%	16.1%	76.6%	48.5%	63.6%	23.7%	54.6%	98%	79%	24.1%	53.5%	93.2%	61%				
